Measured values reported in patent publication US8536209B2, “Aminotriazole derivatives as ALX agonists” (Actelion Pharmaceuticals Ltd., priority 2007, dated 2013).

Biological target: T1, recombinant human ALX receptor (Homo sapiens, UniProt P25090)
T1 construct: expressed in transfected cells; host or cells: HEK293 (HEK293-hALXR-Gα16)
T1 sequence (P25090 1-351): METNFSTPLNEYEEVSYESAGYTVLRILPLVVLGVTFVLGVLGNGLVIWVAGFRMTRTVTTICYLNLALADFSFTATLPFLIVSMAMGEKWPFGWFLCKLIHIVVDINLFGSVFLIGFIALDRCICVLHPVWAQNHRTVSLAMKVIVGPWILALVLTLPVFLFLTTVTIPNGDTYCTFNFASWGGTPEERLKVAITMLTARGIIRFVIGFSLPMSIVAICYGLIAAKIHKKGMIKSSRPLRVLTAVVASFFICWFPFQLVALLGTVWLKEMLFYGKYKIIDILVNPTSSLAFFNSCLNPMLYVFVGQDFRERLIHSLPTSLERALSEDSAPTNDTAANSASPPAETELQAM
Assay: Intracellular calcium measurements (FLIPR), ALX receptor agonistic activity
Assay type: cell-based
Settings: HEK293-hALXR-Gα16 cells, normalized to WKYMVm 10 nM
Protocol: The ALX receptor agonistic activity of the compounds of formula (I) is determined in accordance with the following experimental method.
Intracellular Calcium Measurements:
Cells expressing recombinant human ALX receptor and the G-protein Gα16 (HEK293-hALXR-Gα16) were grown to 80% confluency in Growing Medium (GM). Cells were detached from culture dishes with a cell dissociation buffer (Invitrogen, 13151-014), and collected by centrifugation at 1,000 rpm at RT for 5 min in Assay Buffer (AB) (equal parts of Hank's BSS (Gibco, 14065-049) and DMEM without Phemol Red (Gibco, 11880-028)). After 60 min incubation at 37° C. under 5% CO2 in AB supplemented with 1 μM Fluo-4 (AM) (TEFLABS.COM, 0152), 0.04% (v/v) Pluronic F-127 (Molecular Probes, P6866), and 20 mM HEPES (Gibco, 15630-056), the cells were washed and resuspended in AB. They were then seeded onto 384-well FLIPR assay plates (Greiner, 781091) at 50′000 cells in 70 μl per well and sedimented by centrifugation at 1′000 rpm for 1 min. Stock solutions of test compounds were made up at a concentration of 10 mM in DMSO, and serially diluted in AB to concentrations required for activation dose response curves. WKYMVm (Phoenix Peptides) was used as a reference agonist. A FLIPR^384 instrument (Molecular Devices) was operated according to the manufacturer's standard instructions, adding 4 μl of test compound dissolved at 10 mM in DMSO and diluted prior to the experiment in assay buffer to obtain the desired final concentration. Changes in fluorescence were monitored before and after the addition of test compounds at lex=488 nm and lem=540 nm. Emission peak values above base level after compounds addition were exported after base line subtraction. Values were normalized to high-level control (WKYMVm compound, 10 nM final concentration) after subtraction of the base line value (AB addition). The program XLlfit 3.0 (IDBS) was used to fit the data to a single site dose response curve of the equation (A+((B−A)/(1+((C/x)^D)))) and to calculate the EC50 values.

EC50 [nM] | Compound
57 | CC(=O)c1cc(Cn2ncc(NC(=O)c3ncoc3-c3ccccc3)n2)cs1 [Example 49, 5-Phenyl-oxazole-4-carboxylic acid [2-(5-acetyl-thiophen-3-ylmethyl)-2H-[1,2,3]triazol-4-yl]-amide]
98 | CC(=O)c1ccc(Cn2ncc(NC(=O)c3nc(C)sc3-c3cccc(C)c3)n2)o1 [Example 50, 2-Methyl-5-m-tolyl-thiazole-4-carboxylic acid [2-(5-acetyl-furan-2-ylmethyl)-2H-[1,2,3]triazol-4-yl]-amide]
8.5 | CC(=O)c1cccc(Cn2ncc(NC(=O)OCc3ccccc3Cl)n2)c1 [Example 35, [2-(3-Acetyl-benzyl)-2H-[1,2,3]triazol-4-yl]-carbamic acid 2-chloro-benzyl ester]
2.8 | CC(=O)c1ccc(Cn2ncc(NC(=O)c3ncoc3-c3ccccc3)n2)s1 [Example 33, 5-Phenyl-oxazole-4-carboxylic acid [2-(5-acetyl-thiophen-2-ylmethyl)-2H-[1,2,3]triazol-4-yl]-amide]
1.9 | CC(=O)c1ccc(Cn2ncc(NC(=O)c3ncoc3-c3cccc(N(C)C)c3)n2)o1 [Example 38, 5-(3-Dimethylamino-phenyl)-oxazole-4-carboxylic acid [2-(5-acetyl-furan-2-ylmethyl)-2H-[1,2,3]triazol-4-yl]-amide]
8.1 | CC(=O)c1ncc(Cn2ncc(NC(=O)c3nc(C)oc3-c3cccc(F)c3)n2)o1 [Example 99, 5-(3-Fluoro-phenyl)-2-methyl-oxazole-4-carboxylic acid [2-(2-acetyl-oxazol-5-ylmethyl)-2H-[1,2,3]triazol-4-yl]-amide]
0.8 | CC(=O)c1ccc(Cn2ncc(NC(=O)c3nc(C4CC4)oc3-c3ccccc3)n2)o1 [Example 30, 2-Cyclopropyl-5-phenyl-oxazole-4-carboxylic acid [2-(5-acetyl-furan-2-ylmethyl)-2H-[1,2,3]triazol-4-yl]-amide]
24 | CS(=O)(=O)c1ccc(Cn2ncc(NC(=O)c3ncoc3-c3ccccc3)n2)o1 [Example 37, 5-Phenyl-oxazole-4-carboxylic acid [2-(5-methanesulfonyl-furan-2-ylmethyl)-2H-[1,2,3]triazol-4-yl]-amide]
203 | CC(=O)c1cccc(Cn2ncc(NC(=O)c3ncoc3-c3ccccc3)n2)n1 [Example 43, 5-Phenyl-oxazole-4-carboxylic acid [2-(6-acetyl-pyridin-2-ylmethyl)-2H-[1,2,3]triazol-4-yl]-amide]

More lines, now with the values behind:

Compound | EC50 [nM]
CC(=O)c1ccc(Cn2ncc(NC(=O)/C=C/c3cccc(OC(F)(F)F)c3)n2)o1 [Example 8, (E)-N-[2-(5-Acetyl-furan-2-ylmethyl)-2H-[1,2,3]triazol-4-yl]-3-(3-trifluoromethoxy-phenyl)-acrylamide] | 1.2
CC(=O)c1coc(Cn2ncc(NC(=O)c3ncoc3-c3ccccc3)n2)n1 [Example 91, 5-Phenyl-oxazole-4-carboxylic acid [2-(4-acetyl-oxazol-2-ylmethyl)-2H-[1,2,3]triazol-4-yl]-amide] | 0.7
CC(=O)c1csc(Cn2ncc(NC(=O)OCc3ccccc3Cl)n2)n1 [Example 40, [2-(4-Acetyl-thiazol-2-ylmethyl)-2H-[1,2,3]triazol-4-yl]-carbamic acid 2-chloro-benzyl ester] | 1.3
CC(=O)CCCCn1ncc(NC(=O)c2ncoc2-c2ccccc2)n1 [Example 5, 5-Phenyl-oxazole-4-carboxylic acid [2-(5-oxo-hexyl)-2H-[1,2,3]triazol-4-yl]-amide] | 1.6
CC(=O)c1ccc(Cn2ncc(NC(=O)c3ncoc3-c3cccc(C(F)(F)F)n3)n2)o1 [Example 105, 5-(6-Trifluoromethyl-pyridin-2-yl)-oxazole-4-carboxylic acid [2-(5-acetyl-furan-2-ylmethyl)-2H-[1,2,3]triazol-4-yl]-amide] | 36
CC(=O)c1ccc(Cn2ncc(NC(=O)c3nc(C)oc3-c3cccc(C(F)(F)F)c3)n2)o1 [Example 26, 2-Methyl-5-(3-trifluoromethyl-phenyl)-oxazole-4-carboxylic acid [2-(5-acetyl-furan-2-ylmethyl)-2H-[1,2,3]triazol-4-yl]-amide] | 2
CC(=O)c1ccc(Cn2ncc(NC(=O)c3ncoc3-c3ccccc3)n2)o1 [Example 1, 5-Phenyl-oxazole-4-carboxylic acid [2-(5-acetyl-furan-2-ylmethyl)-2H-[1,2,3]triazol-4-yl]-amide] | 1.8
CC(=O)c1cnc(Cn2ncc(NC(=O)OCc3ccccc3Cl)n2)s1 [Example 71, [2-(5-Acetyl-thiazol-2-ylmethyl)-2H-[1,2,3]triazol-4-yl]-carbamic acid 2-chloro-benzyl ester] | 23
COCCc1cccc(-c2ocnc2C(=O)Nc2cnn(Cc3ccc(C(C)=O)o3)n2)c1 [Example 42, 5-[3-(2-Methoxy-ethyl)-phenyl]-oxazole-4-carboxylic acid [2-(5-acetyl-furan-2-ylmethyl)-2H-[1,2,3]triazol-4-yl]-amide] | 2.1
CC(=O)c1ccnc(Cn2ncc(NC(=O)OCc3ccccc3Cl)n2)c1 [Example 41, [2-(4-Acetyl-pyridin-2-ylmethyl)-2H-[1,2,3]triazol-4-yl]-carbamic acid 2-chloro-benzyl ester] | 21
CC(F)(F)CCCCn1ncc(NC(=O)c2ncoc2-c2ccccc2)n1 [Example 36, 5-Phenyl-oxazole-4-carboxylic acid [2-(5,5-difluoro-hexyl)-2H-[1,2,3]triazol-4-yl]-amide] | 4.9
CC(=O)c1nc(Cn2ncc(NC(=O)OCc3ccccc3Cl)n2)co1 [Example 104, [2-(2-Acetyl-oxazol-4-ylmethyl)-2H-[1,2,3]triazol-4-yl]-carbamic acid 2-chloro-benzyl ester] | 1.4
COc1cc(-c2ocnc2C(=O)Nc2cnn(Cc3ccc(C(C)=O)o3)n2)ccc1C [Example 21, 5-(3-Methoxy-4-methyl-phenyl)-oxazole-4-carboxylic acid [2-(5-acetyl-furan-2-ylmethyl)-2H-[1,2,3]triazol-4-yl]-amide] | 53
COCCc1nc(C(=O)Nc2cnn(Cc3ccc(C(C)=O)o3)n2)c(-c2ccccc2)o1 [Example 93, 2-(2-Methoxy-ethyl)-5-phenyl-oxazole-4-carboxylic acid [2-(5-acetyl-furan-2-ylmethyl)-2H-[1,2,3]triazol-4-yl]-amide] | 5.2
